Where a name gives a salt, the structure may show the parent alone.
Target: T1, Phospho-EGFR in H1975 cell line (Homo sapiens, UniProt P00533, L858R/T790M)
T1 construct: H1975 cell line was obtained from American Type Culture Collection; host or cells: H1975
Test: HTRF Phospo EGFR Assay (Cellular)
Format: cell-based
Settings: H1975 cells; 6 hours compound incubation in starving medium; HTRF anti-Phospho-EGFR readout
Description: HTRF Phospo EGFR Assay (Cellular)
H1975 cell line was obtained from American Type Culture Collection (Manassas, Va., USA). Cells were maintained at 37° C., 5% CO2 in complete Media RPMI 1640 without phenol red containing 0.3 mg/ml glutamine, 100 IU/ml penicillin, and […] (Gibco) supplemented with 10% fetal bovine serum (FBS) (Gibco). Compounds were diluted into starving medium RPMI 1640 Media without phenol red containing 0.3 mg/ml glutamine, 100 IU/ml penicillin, and […] (Gibco).
Cells were cultured overnight in a 384-well white plate (8000 cells/well) using 8 μl of complete medium/well. Cells were washed two times with 20 μl of starving medium. Media was removed by tapping plates on tissue and subsequently 8 μl of fresh starving medium/well was added. Then 4 μl/well of the 3×compound solution, containing a half-log dilution series of the compound or DMSO in starving medium, were added to the cells. After 6 hours at 37° C., 5% CO2 cells were lysed by adding to the compound mix 4 μl/well of the supplemented lysis buffer, followed by incubation for 30 min at room temperature with shaking. Lysates were stored at −20° C. overnight. The following day plates were thawed and 2 μl of anti-Phospho-EGFR Cryptate and 2 μl of anti-Phospho-EGFR-d2 antibody solutions prepared in the detection buffer were added. The plates were then incubated for at least 4 h at room temperature before reading the fluorescence emission at 620 and 665 nm using PHERAstar FX plate reader (BMG Labtech).

T1 sequence (P00533 25-1210 T790M/L858R): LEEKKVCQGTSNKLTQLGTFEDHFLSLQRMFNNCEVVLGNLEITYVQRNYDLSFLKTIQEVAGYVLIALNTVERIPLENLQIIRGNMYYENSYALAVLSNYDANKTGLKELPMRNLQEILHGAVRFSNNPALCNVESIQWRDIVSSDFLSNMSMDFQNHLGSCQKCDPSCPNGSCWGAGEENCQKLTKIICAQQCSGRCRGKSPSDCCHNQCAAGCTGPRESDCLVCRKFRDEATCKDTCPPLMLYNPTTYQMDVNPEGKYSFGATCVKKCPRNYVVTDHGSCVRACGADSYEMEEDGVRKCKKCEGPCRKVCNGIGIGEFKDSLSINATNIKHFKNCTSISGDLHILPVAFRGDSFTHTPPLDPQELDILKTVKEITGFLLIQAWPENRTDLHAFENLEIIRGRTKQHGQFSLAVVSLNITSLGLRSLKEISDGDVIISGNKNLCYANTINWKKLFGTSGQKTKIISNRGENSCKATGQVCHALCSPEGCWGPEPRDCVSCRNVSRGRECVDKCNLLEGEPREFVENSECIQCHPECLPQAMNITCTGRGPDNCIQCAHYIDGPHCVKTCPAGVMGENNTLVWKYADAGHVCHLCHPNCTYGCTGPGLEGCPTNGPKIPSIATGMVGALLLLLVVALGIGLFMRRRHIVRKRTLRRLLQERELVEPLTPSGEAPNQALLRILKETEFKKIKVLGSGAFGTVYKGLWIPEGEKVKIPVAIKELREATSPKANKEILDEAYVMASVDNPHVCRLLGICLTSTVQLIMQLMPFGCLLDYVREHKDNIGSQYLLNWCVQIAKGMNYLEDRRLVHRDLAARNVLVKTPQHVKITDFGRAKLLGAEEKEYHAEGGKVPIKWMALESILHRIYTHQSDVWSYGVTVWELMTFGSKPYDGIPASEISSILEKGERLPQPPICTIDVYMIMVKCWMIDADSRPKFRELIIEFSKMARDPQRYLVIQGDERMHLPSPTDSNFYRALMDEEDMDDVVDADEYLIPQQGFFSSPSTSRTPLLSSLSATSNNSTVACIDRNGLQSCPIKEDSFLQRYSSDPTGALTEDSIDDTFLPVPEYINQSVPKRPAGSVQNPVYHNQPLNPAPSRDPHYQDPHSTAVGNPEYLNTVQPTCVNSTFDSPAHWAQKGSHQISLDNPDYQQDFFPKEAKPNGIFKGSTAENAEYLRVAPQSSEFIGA

Row | IC50 | SMILES
1 | 4 nM | Nc1ccc(C#Cc2ccc3c(c2)C(=O)N(C(C(=O)Nc2nccs2)c2ccccc2O)C3)cn1 (racemic) [Example 24, (2RS)-2-[6-[2-(6-Amino-3-pyridyl)ethynyl]-1-oxo-isoindolin-2-yl]-2-(2-hydroxyphenyl)-N-thiazol-2-yl-acetamide]
2 | 10 nM | CC(=O)Nc1ccc(C#Cc2ccc3c(c2)C(=O)N(C(C(=O)Nc2nccs2)c2ccccc2)C3)cn1 (racemic) [Example 7, (2RS)-2-[6-[2-(6-Acetamido-3-pyridyl)ethynyl]-1-oxo-isoindolin-2-yl]-2-phenyl-N-thiazol-2-yl-acetamide]
3 | 7 nM | Nc1ccc(C#Cc2ccc3c(c2)C(=O)N(C(C(=O)Nc2nccs2)c2cc(F)ccc2F)C3)cn1 (racemic) [Example 5, (2RS)-2-[6-[2-(6-Amino-3-pyridyl)ethynyl]-1-oxo-isoindolin-2-yl]-2-(2,5-difluorophenyl)-N-thiazol-2-yl-acetamide]
4 | 3 nM | Cc1c(C#Cc2ccc(N)nc2)ccc2c1C(=O)N(C(C(=O)Nc1nccs1)c1cc(F)ccc1O)C2 (racemic) [Example 21, (2RS)-2-[6-[2-(6-Amino-3-pyridyl)ethynyl]-7-methyl-1-oxo-isoindolin-2-yl]-2-(5-fluoro-2-hydroxy-phenyl)-N-thiazol-2-yl-acetamide]
5 | 1 nM | O=C(Nc1nccs1)C(c1cc(F)ccc1O)N1Cc2ccc(C#Cc3cccnc3)cc2C1=O (racemic) [Example 16, (2RS)-2-(5-Fluoro-2-hydroxy-phenyl)-2-[1-oxo-6-[2-(3-pyridyl)ethynyl]isoindolin-2-yl]-N-thiazol-2-yl-acetamide]
6 | 61 nM | O=C(Nc1nccs1)C(c1ccccc1)N1Cc2ccc(C#Cc3ccc(CN4CCOCC4)cc3)cc2C1=O (racemic) [Example 11, (2RS)-2-[6-[2-[4-(Morpholinomethyl)phenyl]ethynyl]-1-oxo-isoindolin-2-yl]-2-phenyl-N-thiazol-2-yl-acetamide]
7 | 8 nM | O=C(Nc1nccs1)C(c1cc(F)ccc1O)N1Cc2ccc(C#Cc3ccc(CN4CCNCC4)cc3)cc2C1=O (racemic) [Example 29, (2RS)-2-(5-Fluoro-2-hydroxy-phenyl)-2-[1-oxo-6-[2-[4-(piperazin-1-ylmethyl)phenyl]ethynyl]isoindolin-2-yl]-N-thiazol-2-yl-acetamide]
8 | 1.9 nM | Nc1ccc(C#Cc2ccc3c(c2)C(=O)N(C(C(=O)Nc2nccs2)c2n[nH]c4c2CCC4)C3)cn1 (racemic) [Example 8, (2RS)-2-[6-[2-(6-Amino-3-pyridyl)ethynyl]-1-oxo-isoindolin-2-yl]-2-(1,4,5,6-tetrahydrocyclopenta[c]pyrazol-3-yl)-N-thiazol-2-yl-acetamide]
9 | 4 nM | Nc1ccc(C#Cc2ccc3c(c2)C(=O)N(C(C(=O)Nc2nccs2)c2cc(Cl)ccc2O)C3)cn1 (racemic) [Example 23, (2RS)-2-[6-[2-(6-Amino-3-pyridyl)ethynyl]-1-oxo-isoindolin-2-yl]-2-(5-chloro-2-hydroxy-phenyl)-N-thiazol-2-yl-acetamide]
10 | 7 nM | CCN1CCN(Cc2ccc(C#Cc3ccc4c(c3)C(=O)N(C(C(=O)Nc3nccs3)c3cc(F)ccc3O)C4)cc2)CC1 (racemic) [Example 31, (2RS)-2-[6-[2-[4-1(4-Ethylpiperazin-1-yl)methyl]phenyl]ethynyl1-1-oxo-isoindolin-2-yl]-2-(5-fluoro-2-hydroxy-phenyl)-N-thiazol-2-yl-acetamide]
11 | 32 nM | Nc1ccc(C#Cc2ccc3c(c2)C(=O)N(C(C(=O)Nc2nccs2)c2ccccc2)C3)cn1 (racemic) [Example 3, (2RS)-2-[6-[2-(6-Amino-3-pyridyl)ethynyl]-1-oxo-isoindolin-2-yl]-2-phenyl-N-thiazol-2-yl-acetamide]
12 | 4 nM | Nc1ccc(C#Cc2ccc3c(c2)C(=O)N(C(C(=O)Nc2ccccn2)c2cc(F)ccc2O)C3)cn1 (racemic) [Example 20, (2RS)-2-[6-[2-(6-Amino-3-pyridyl)ethynyl]-1-oxo-isoindolin-2-yl]-2-(5-fluoro-2-hydroxy-phenyl)-N-(2-pyridyl)acetamide]
13 | 5 nM | O=C(Nc1nccs1)C(c1cc(F)ccc1O)N1Cc2ccc(C#Cc3ccc(CN4CCOCC4)cc3)cc2C1=O (racemic) [Example 27, (2RS)-2-(5-Fluoro-2-hydroxy-phenyl)-2-[6-[2-[4-(morpholinomethyl)phenyl]ethynyl]-1-oxo-isoindolin-2-yl]-N-thiazol-2-yl-acetamide]
14 | 2 nM | O=C(Nc1nccs1)C(c1cc(F)ccc1O)N1Cc2ccc(C#Cc3cccnc3)c(F)c2C1=O (racemic) [Example 26, (2RS)-2-(5-Fluoro-2-hydroxy-phenyl)-2-[7-fluoro-1-oxo-6-[2-(3-pyridyl)ethynyl]isoindolin-2-yl]-N-thiazol-2-yl-acetamide]

Second part, the compound before the results:

Row | SMILES | IC50
15 | O=C(Nc1nccs1)C(c1ccccc1)N1Cc2ccc(C#Cc3ccccc3)cc2C1=O (racemic) [Example 1, (2RS)-2-[1-Oxo-6-(2-phenylethynyl)isoindolin-2-yl]-2-phenyl-N-thiazol-2-yl-acetamide] | 45 nM
16 | O=C(Nc1nccs1)C(c1cc(F)ccc1O)N1Cc2ccc(C#Cc3ccccc3)cc2C1=O (racemic) [Example 17, (2RS)-2-(5-Fluoro-2-hydroxy-phenyl)-2-[1-oxo-6-(2-phenylethynyl)isoindolin-2-yl]-N-thiazol-2-yl-acetamide] | 6 nM
17 | O=C(Nc1nccs1)C(c1cc(F)ccc1O)N1Cc2ccc(C#Cc3ccnc(Cl)c3)cc2C1=O (racemic) [Example 19, (2RS)-2-[6-[2-(2-Chloro-4-pyridyl)ethynyl]-1-oxo-isoindolin-2-yl]-2-(5-fluoro-2-hydroxy-phenyl)-N-thiazol-2-yl-acetamide] | 3 nM
18 | CC(=O)N1CCN(Cc2ccc(C#Cc3ccc4c(c3)C(=O)N(C(C(=O)Nc3nccs3)c3ccccc3)C4)cc2)CC1 (racemic) [Example 12, (2RS)-2-[6-[2-[4-[(4-acetylpiperazin-1-yl)methyl]phenyl]ethynyl]-1-oxo-isoindolin-2-yl]-2-phenyl-N-thiazol-2-1-acetamide] | 14 nM
19 | Cc1c(C#Cc2ccc(N)nc2)ccc2c1C(=O)N(C(C(=O)Nc1ccccn1)c1cc(F)ccc1O)C2 (racemic) [Example 22, (2RS)-2-[6-[2-(6-Amino-3-pyridyl)ethynyl]-7-methyl1-oxo-isoindolin-2-yl]-2-(5-fluoro-2-hydroxy-phenyl)-N-(2-pyridyl)acetamide] | 3 nM
20 | O=C(Nc1nccs1)C(c1ccccc1)N1Cc2ccc(C#Cc3ccc(C(=O)N4CCOCC4)nc3)cc2C1=O (racemic) [Example 14, (2RS)-2-[6-[2-[6-(Morpholine-4-carbonyl)-3-pyridyl]ethynyl]-1-oxo-isoindolin-2-yl]-2-phenyl-N-thiazol-2-yl-acetamide] | 51 nM
21 | O=C(Nc1nccs1)C(c1ccccc1)N1Cc2ccc(C#Cc3ccc(CN4CCNCC4)cc3)cc2C1=O (racemic) [Example 10, (2RS)-2-[1-Oxo-6-[2-[4-(piperazin-1-ylmethyl)phenyl]ethynyl]isoindolin-2-yl]-2-phenyl-N-thiazol-2-yl-acetamide hydrochloride] | 43 nM
22 | CCN1CCN(Cc2ccc(C#Cc3ccc4c(c3)C(=O)N(C(C(=O)Nc3nccs3)c3ccccc3)C4)cc2)CC1 (racemic) [Example 13, (2RS)-2-[6-[2-[4-[(4-Ethylpiperazin-1-yl)methyl]phenyl]ethynyl]-1-oxo-isoindolin-2-yl]-2-phenyl-N-thiazol-2-yl-acetamide] | 69 nM
23 | Nc1ccc(C#Cc2ccc3c(c2)C(=O)N(C(C(=O)Nc2nccs2)c2ncccc2O)C3)cn1 (racemic) [Example 25, (2RS)-2-[6-[2-(6-Amino-3-pyridyl)ethynyl]-1-oxo-isoindolin-2-yl]-2-(3-hydroxy-2-pyridyl)-N-thiazol-2-yl-acetamide trifluoroacetate] | 2 nM
24 | O=C(Nc1nccs1)C(c1cc(F)ccc1O)N1Cc2ccc(C#Cc3ccc(CN4CCC(O)CC4)cc3)cc2C1=O (racemic) [Example 28, (2RS)-2-(5-Fluoro-2-hydroxy-phenyl)-2-[6-[2-[4-1(4-hydroxy-1-piperidyl)methyl]phenyllethynyl]-1-oxo-isoindolin-2-yl]-N-thiazol-2-yl-acetamide] | 7 nM
25 | Nc1ncc(C#Cc2ccc3c(c2)C(=O)N(C(C(=O)Nc2nccs2)c2cc(F)ccc2O)C3)cn1 (racemic) [Example 18, (2RS)-2-[6-[2-(2-Aminopyrimidin-5-yl)ethynyl]-1-oxo-isoindolin-2-yl]-2-(5-fluoro-2-hydroxy-phenyl)-N-thiazol-2-yl-acetamide] | 2 nM
26 | O=C(Nc1nccs1)C(c1ccccc1)N1Cc2ccc(C#Cc3cccnc3)cc2C1=O (racemic) [Example 2, (2RS)-2-[1-oxo-6-[2-(3-pyridyl)ethynyl]isoindolin-2-yl]-2-phenyl-N-thiazol-2-yl-acetamide] | 42 nM
27 | NCc1ccc(C#Cc2ccc3c(c2)C(=O)N(C(C(=O)Nc2nccs2)c2ccccc2)C3)cc1 (racemic) [Example 6, (2RS)-2-[6-[2-[4-(Aminomethyl)phenyl]ethynyl]-1-oxo-isoindolin-2-yl]-2-phenyl-N-thiazol-2-yl-acetamide] | 35 nM

— patent US11117890B2, “Substituted isoindole allosteric EGFR inhibitors” (Hoffmann-La Roche Inc., priority 2017, dated 2021)
